Activity calls are given as the source filed them. No cut-off for these calls is given here.
How the values were obtained:
[1] = target: T1, Fatty-acid amide hydrolase 1 (Homo sapiens, UniProt O00519); assay: Inhibition of human recombinant FAAH overexpressed in African green monkey COS7 cells using [3H]-anandamide as substrate preincubated for 10 mins before substrate addition measured after 10 mins by liquid scintillation counting analysis; assay type: cell-based, COS-7
T1 sequence (O00519 whole entry): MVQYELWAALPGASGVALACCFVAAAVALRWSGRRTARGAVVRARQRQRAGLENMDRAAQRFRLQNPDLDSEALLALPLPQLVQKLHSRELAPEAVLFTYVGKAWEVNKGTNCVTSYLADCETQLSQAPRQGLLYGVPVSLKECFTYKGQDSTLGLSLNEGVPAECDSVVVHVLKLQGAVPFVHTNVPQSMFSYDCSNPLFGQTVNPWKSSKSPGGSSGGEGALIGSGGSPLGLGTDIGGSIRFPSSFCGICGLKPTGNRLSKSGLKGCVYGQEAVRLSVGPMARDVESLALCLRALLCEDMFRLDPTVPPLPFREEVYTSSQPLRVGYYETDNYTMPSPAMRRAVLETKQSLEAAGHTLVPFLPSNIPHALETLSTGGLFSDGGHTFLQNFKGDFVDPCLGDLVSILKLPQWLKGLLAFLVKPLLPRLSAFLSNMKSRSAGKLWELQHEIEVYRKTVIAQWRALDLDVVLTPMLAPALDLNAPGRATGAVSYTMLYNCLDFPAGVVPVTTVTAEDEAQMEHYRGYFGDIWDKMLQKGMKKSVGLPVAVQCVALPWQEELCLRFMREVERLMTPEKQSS

[2] = Selectivity ratio for human recombinant FAAH over ovine COX-1
[3] = target: T2, Monoacylglycerol lipase ABHD6 (Mus musculus) (UniProt Q8R2Y0); assay: Inhibition of TAMRA-FP-labeled ABHD6 in mouse brain membrane at 10 uM after 1 hr by fluorescent gel scanning assay; assay type: cell membranes
T2 sequence (whole entry): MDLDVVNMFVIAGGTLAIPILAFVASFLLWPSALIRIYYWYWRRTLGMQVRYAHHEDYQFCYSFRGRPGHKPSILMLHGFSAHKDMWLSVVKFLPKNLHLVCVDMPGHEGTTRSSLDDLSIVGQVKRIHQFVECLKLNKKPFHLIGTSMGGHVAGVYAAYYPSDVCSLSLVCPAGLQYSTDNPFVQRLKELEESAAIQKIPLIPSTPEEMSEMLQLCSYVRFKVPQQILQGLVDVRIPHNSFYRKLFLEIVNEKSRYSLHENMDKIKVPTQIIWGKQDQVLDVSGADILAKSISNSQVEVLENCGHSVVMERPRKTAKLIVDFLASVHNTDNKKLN

[4] = target: T3, Prostaglandin G/H synthase 2 (Homo sapiens) (UniProt P35354); assay: Inhibition of human recombinant COX-2 using arachidonic acid as substrate assessed as oxygen consumption at 30 to 100 uM measured within 10 to 50 secs relative to control
T3 sequence (whole entry): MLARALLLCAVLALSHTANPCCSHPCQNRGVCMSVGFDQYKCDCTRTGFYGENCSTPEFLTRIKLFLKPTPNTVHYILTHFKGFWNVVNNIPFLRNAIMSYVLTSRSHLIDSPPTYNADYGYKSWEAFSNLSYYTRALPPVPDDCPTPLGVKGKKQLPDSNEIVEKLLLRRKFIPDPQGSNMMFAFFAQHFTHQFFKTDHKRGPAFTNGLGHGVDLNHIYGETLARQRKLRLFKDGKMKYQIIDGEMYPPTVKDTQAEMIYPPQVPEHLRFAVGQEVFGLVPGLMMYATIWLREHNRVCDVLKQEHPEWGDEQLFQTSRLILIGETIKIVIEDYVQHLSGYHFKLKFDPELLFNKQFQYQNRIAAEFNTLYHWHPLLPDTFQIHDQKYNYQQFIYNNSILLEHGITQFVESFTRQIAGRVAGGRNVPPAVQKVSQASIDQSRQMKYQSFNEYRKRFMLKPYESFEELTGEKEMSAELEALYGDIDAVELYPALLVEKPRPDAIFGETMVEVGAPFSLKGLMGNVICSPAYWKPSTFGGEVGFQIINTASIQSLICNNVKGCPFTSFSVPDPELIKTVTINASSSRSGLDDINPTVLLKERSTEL

[5] = target: T4, Fatty-acid amide hydrolase 1 (Mus musculus) (UniProt O08914); assay: Inhibition of TAMRA-FP-labeled FAAH in mouse brain membrane at 1 uM after 1 hr by fluorescent gel scanning assay; assay type: cell membranes
T4 sequence (whole entry): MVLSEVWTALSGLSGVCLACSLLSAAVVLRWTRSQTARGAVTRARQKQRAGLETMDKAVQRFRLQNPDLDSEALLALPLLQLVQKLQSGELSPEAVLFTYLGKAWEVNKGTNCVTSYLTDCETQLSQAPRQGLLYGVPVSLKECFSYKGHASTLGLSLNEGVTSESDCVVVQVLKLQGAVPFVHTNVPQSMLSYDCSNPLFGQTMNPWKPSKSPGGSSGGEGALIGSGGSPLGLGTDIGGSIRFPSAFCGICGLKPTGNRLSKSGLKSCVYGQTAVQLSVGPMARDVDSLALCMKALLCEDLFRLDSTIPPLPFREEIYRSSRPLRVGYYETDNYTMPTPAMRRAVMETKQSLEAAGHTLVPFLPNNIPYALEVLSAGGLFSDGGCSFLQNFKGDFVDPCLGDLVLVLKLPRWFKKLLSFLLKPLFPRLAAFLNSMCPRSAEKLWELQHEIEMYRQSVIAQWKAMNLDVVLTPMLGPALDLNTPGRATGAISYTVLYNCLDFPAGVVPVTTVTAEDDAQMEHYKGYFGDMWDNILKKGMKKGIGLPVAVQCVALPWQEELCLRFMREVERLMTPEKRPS

[6] = target: Cannabinoid receptor 1 (Rattus norvegicus) (UniProt P20272); assay: Antagonist activity at CB1 receptor in rat cerebellar membranes assessed as HU210-evoked response up to 10 uM incubated for 10 mins prior to testing by [35S]GTPgammaS binding assay; assay type: functional, cell membranes; details: Cerebellum, Membrane
[7] = target: T3, Prostaglandin G/H synthase 2 (Homo sapiens); assay: Inhibition of human recombinant COX-2 assessed as inhibition of 2-AG cyclooxygenation at 10 uM measured within 10 to 50 secs relative to control
[8] = target: T5, Fatty-acid amide hydrolase 1 (Homo sapiens) (UniProt O00519); assay: Noncompetitive inhibition of human recombinant FAAH overexpressed in African green monkey COS7 cells using anandamide as substrate assessed as decrease in Vmax of substrate hydrolysis preincubated for 10 mins before substrate addition measured after 10 mins by HPLC analysis; details: COS-7
T5 sequence (whole entry): T1 sequence (O00519 whole entry)

Homo sapiens = species: Homo sapiens; assay: Selectivity ratio for human recombinant FAAH over human recombinant COX-2

Sequence of Cannabinoid receptor 1 (Rattus norvegicus) (P20272 whole entry): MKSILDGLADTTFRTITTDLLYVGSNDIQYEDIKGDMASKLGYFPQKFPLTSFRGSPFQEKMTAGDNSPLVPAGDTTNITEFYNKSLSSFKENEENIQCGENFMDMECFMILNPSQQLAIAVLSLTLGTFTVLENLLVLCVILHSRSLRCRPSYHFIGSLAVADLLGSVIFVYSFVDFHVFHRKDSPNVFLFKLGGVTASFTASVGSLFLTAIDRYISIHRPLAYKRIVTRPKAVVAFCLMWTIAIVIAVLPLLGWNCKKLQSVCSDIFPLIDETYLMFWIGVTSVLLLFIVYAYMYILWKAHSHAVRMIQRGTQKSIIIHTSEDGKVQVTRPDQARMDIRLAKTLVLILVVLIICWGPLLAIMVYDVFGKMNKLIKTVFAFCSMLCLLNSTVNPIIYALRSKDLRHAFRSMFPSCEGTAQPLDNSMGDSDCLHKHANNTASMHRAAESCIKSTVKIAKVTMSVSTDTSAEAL

Question: With `COc1nn([C@@H](C)c2ccc(CC(C)C)cc2)c(=O)o1` as the molecule, how does the IC50 ([1]; read-out: IC50) read?
Answer: Its IC50 is 11 nM.

Question: And the IC50 ([1]; read-out: pIC50 (converted))?
Answer: The IC50 was 11.5 nM.

Question: And the Selectivity ratio [2]?
Answer: Its Selectivity ratio is > 900.

Question: What about the inhibition [3] of the same molecule?
Answer: Its inhibition is “inactive”.

Question: What about the inhibition [4] of the same molecule?
Answer: The inhibition was 30%.

Question: And the inhibition [5]?
Answer: The inhibition was “Active”.

Question: What about the Activity [6] of the same molecule?
Answer: The Activity was “inactive”.

Question: And the inhibition [7]?
Answer: The inhibition was 10%.

Question: And the inhibition [8]?
Answer: Its inhibition is “Dose-dependent effect”.

Question: What about the Selectivity ratio (Homo sapiens) of the same molecule?
Answer: The Selectivity ratio was > 900.
